The values that follow come from publication PMC8054307 (The Journal of pharmacy and pharmacology, 2018).

“Also recorded” adds a separate entry of the source.

The conditions of data set [1]: rat, in vivo, po; cited from earlier work.
Data set [2] concerns cytochrome P450 (CYP450) enzyme system. The conditions noted are these: cited from earlier work.
Data set [3] concerns wild-type HBV. The conditions noted are these: oral 0.02 mg/kg/day, hu-liver-chimeric mice; cited from earlier work.
Data set [4] can be described thus: Tissue distribution of CdG to liver and kidney in rats. Type of data set: in vivo, Male Sprague-Dawley rats. Conditions: 9 h after i.v. or p.o. 1 mg/kg.
A short description of data set [5]: Pharmacokinetic study of CdG in rats after i.v. and p.o. administration. Type of data set: in vivo, Male Sprague-Dawley rats. The conditions noted are these: 1 mg/kg; for half-life: t1/2, rats.
For data set [6], the target named is human serum albumin (HSA) (Homo sapiens, UniProt P02768). Description: Protein binding by ultrafiltration, HSA. It counts as in vitro ADME. Conditions: 600 μM HSA, CdG 500 ng/ml.
Sequence of human serum albumin (HSA) (P02768 25-609): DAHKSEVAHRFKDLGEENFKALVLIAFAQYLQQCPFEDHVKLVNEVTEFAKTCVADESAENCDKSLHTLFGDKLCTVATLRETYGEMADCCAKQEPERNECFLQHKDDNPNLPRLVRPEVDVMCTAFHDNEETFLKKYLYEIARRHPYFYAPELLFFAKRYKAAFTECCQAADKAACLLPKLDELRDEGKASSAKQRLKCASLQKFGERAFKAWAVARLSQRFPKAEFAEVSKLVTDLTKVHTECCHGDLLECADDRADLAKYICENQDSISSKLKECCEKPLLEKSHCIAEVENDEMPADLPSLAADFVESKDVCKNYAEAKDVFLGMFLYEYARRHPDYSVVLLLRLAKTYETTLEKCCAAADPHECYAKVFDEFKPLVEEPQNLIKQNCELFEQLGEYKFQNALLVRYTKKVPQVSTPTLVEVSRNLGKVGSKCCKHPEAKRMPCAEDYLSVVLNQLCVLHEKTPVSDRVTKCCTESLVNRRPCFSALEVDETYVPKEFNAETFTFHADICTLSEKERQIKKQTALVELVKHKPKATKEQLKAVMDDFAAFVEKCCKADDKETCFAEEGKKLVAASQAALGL
Data set [7] in a line: Protein binding by ultrafiltration, human plasma. It counts as in vitro ADME. Conditions: pooled human plasma.
For data set [8], the system named is human α1 acidic glycoprotein (AGP). The data set can be described thus: Protein binding by ultrafiltration, AGP. Type of data set: in vitro ADME. Conditions: 45 μM AGP, CdG 500 ng/ml.
The nature of data set [9]: Pharmacokinetic study of CdG and ETV oral co-administration in rats. Type of data set: in vivo. The conditions noted are these: male, Sprague-Dawley, rat, plasma, 1 mg/kg.
The next data set has as its system ETV-resistant HBV. The conditions noted are these: oral 0.02 mg/kg/day, hu-liver-chimeric mice; cited from earlier work.
For data set [10], the system named is cytochrome P450 (CYP450) enzyme system. Description: Metabolism by CYP450. It counts as in vitro ADME. The conditions noted are these: data not shown.
The conditions of data set [11]: 2 days after administration; another study of the authors, ref not given; cited from earlier work.
Data set [12] in a line: Urinary excretion of CdG in rats. Type of data set: in vivo, Male Sprague-Dawley rats. Conditions: for amount of unchanged CdG accumulated in urine: 9 h after administration.
For data set [13], the system named is wild-type HBV. Conditions: read-out: half-maximal inhibitory concentration (IC50); cited from earlier work.
Setting [14] is: male, Sprague-Dawley, rat, plasma, iv.
The mark [15] stands for this setting: male, Sprague-Dawley, rat, plasma, po.

Consider `CC(C)(C)C(=O)OCOP(=O)(COCCn1cnc2c(N)ncnc21)OCOC(=O)C(C)(C)C` [adefovir dipivoxil], for which the bioavailability result in data set [1] was “approximately 50%”.

Take `C=C1[C@H](CO)[C@@H](O)C[C@@H]1n1cnc2c(=O)[nH]c(N)nc21` [ETV, entecavir]: in data set [1], the bioavailability entry is on record as “approximately 78%”. For the same compound, the “substrate for the CYP450 enzyme system” value in [2] was “not a substrate”.

With `N#C[C@]1(CO)O[C@@H](n2cnc3c(=O)[nH]c(N)nc32)C[C@@H]1O` [CdG, 4′-cyano-2′-deoxyguanosine], in the data set on wild-type HBV [3], the “replication of wild-type HBV” value was “significantly blocked”. For the same compound, the “distribution to liver vs kidney” value in data set [4] is “higher levels of CdG were distributed to the liver than the kidney; also recorded: distributed to the liver rather than kidney”. In [5] (setting [14]), the exposure (AUC) (as a rule, the area under the concentration-time curve, a measure of exposure) came out at 123 ± 28.1 ng·h/mL; the mean residence time MRT (usually the average time that molecules of a dose stay in the body) was found to be 29.4 ± 3.6 min; the Vd is 4.08 ± 0.62 L/kg; the clearance is 141 mL/min/kg. In [5] (setting [14]), the half-life – broadly, the time in which the quantity being followed falls by half – amounted to 30 min. Besides, in data set [5] (setting [15]), the AUC came out at 90.1 ± 5.75 ng·h/mL; the CL/F (in general, clearance divided by bioavailability, as obtained after extravascular dosing) is 185 mL/min/kg; the highest level (Cmax) was 53.8 ± 8.63 ng/mL; the MRT turned out to be 82.8 ± 7.2 min. For the same compound, the time to peak (Tmax) – broadly, the time at which the peak concentration occurs – in data set [5] (setting [15]) was determined as 45 min. The same compound gave a half-life in data set [5] (male, Sprague-Dawley, rat, plasma, po, CdG alone) of 42 min. The “time to reach undetectable plasma levels after administration” value in data set [5] (rats, i.v. and p.o.) was ≤ 9 h. This compound also displayed a t1/2 in [5] (rats, p.o., CdG alone) of 43.8 ± 7.2 min. For the same compound, in data set [6], the “binding rate to HSA” value is recorded as “about 11.6 ± 0.01%”. The unbound share (fraction unbound) (as a rule, free concentration divided by total concentration) at 500 ng/ml in data set [7] is ~0.393. In addition, in data set [8], the “binding rate to AGP” value was “about 13.5 ± 0.01%”. In data set [9], the Tmax was determined as 45 min. Moreover, in the data set with ETV-resistant HBV, the “replication of ETV-resistant HBV” value was “significantly blocked”. For the same compound, in [10], the “metabolism by CYP450” value is “rarely metabolized by CYP450”. Further, the “amount accumulated in the urine, % of the given dose” value in data set [11] is given as “about 40%”. Moreover, in data set [12] (LC/MS chromatographic profile of urine), the “form excreted into the urine” value is reported as “unchanged form”. In addition, in data set [12] (i.v. 1 mg/kg, 9 h), the “urinary excretion, % of the given dose” value turned out to be 45%. Further, the “amount of unchanged CdG accumulated in urine” value in data set [12] (i.v. 1 mg/kg) is “about 113 μg”. The “amount of unchanged CdG accumulated in urine” value in [12] (p.o. 1 mg/kg) is ~49 µg. In addition, the IC50 with wild-type HBV [13] is 0.4 nM.
